Laboratory results reported in patent US20100069319A1, “Mercaptopurine derivatives and uses thereof” (priority 2007, published 2010).

Experiments:
[1] = tested on: human peripheral blood mononuclear cells (PBMCs); settings: after 4 days of treatment, read-out: IC50, T-cell mitogen-induced blastogenesis; cited from earlier work
[2] = tested on: B-CLL cells; test: Apoptosis by Annexin-Cy5 FACS analysis; format: cell-based, human; settings: 16 h
Description: Apoptosis analysis in B-CLL cells treated with 6-MP derivatives at different concentration (16 h, at 37° C.) was done by FACS analysis. B-CLL cells were incubated with FITC-CD19 anti-human antibodies (Becton Dickinson, NJ, USA) for 20 minutes at 4° C. After washing off the unbound antibodies, samples were incubated with 5 μl Annexin-Cy5 (Pharmingen, San Diego, Calif., USA) in 10 mM HEPES pH 7.4 buffer containing 140 mM NaCl and 2.5 mM CaCl2, (HBS) for 10 minutes at room temperature. Subsequently, unbound Annexin was washed out and the samples were analyzed using FACScan analyzer (Becton-Dickinson, NJ, USA). The lymphocytes were counted and gated according to their size in forward and side scatters.
The slight decrease in viability of B-CLL human peripheral blood mononuclear cells (PBMC) upon incubation in the presence of 6-MP or SA-6MP was further investigated. B-CLL cells were treated with various concentrations of either 6-MP or SA-6MP and were subjected to flow cytometry analysis, as described in Materials and Methods, in order to monitor cells undergoing apoptosis.

[3] = tested on: N87 cells; test: XTT cell proliferation assay; format: cell-based, human; settings: 16 h
Description: (§1) Cell proliferation was determined by the XTT viability assay in 96-well plates, based on the reduction of tetrazolium salt to soluble formazan compounds by living cells. Cells (10,000-15,000 cells/well) were seeded in a 96-well plate. After 16 h incubation with various concentrations of 6-MP, 6-MPR and their S-allylthio-derivatives, 50 μl of XTT/PMS mixture (50 μM PMS, 0.1% XTT in medium) was added onto the cells. After an incubation period of 3-4 h at 37° C. the absorbance of the samples was measured in an ELISA Reader at 450 nm. SDS (1%, 10 μl/well) was added to reference wells before adding the XTT/PMS solution.
The inhibitory effects of the various prodrugs on Daudi leukemia cell and on monolayer N87 cells were compared. […] XTT was added to the wells for 3 h at 37° C. Cell viability was monitored using an ELISA reader at 450 nm, as described in Materials and Methods.

[4] = tested on: MDR HT-29 cells; test: Cell death assessment by PI staining, phase-contrast and fluorescence microscopy; format: cell-based, human; settings: MDR HT-29, 150 μM, 16 h
Description: Cell death was monitored by trypan blue dye exclusion test or propidium iodide (PI) incorporation. Treated cells were incubated with PI (2 μg/ml) for 20 min at 37° C., washed with HBS and examined by fluorescence microscopy or analyzed by flow cytometry using fluorescence-activated cell sorting (Becton Dickinson FACScan Instrument using CellQuest software (BD Bioscience, San Jose, Calif.). Monolayer cells were trypsinized and washed with HBS before FACS analysis.
In order to determine the toxic effect of 6-MP and SA-6MP on multidrug resistant cell lines, MDR HT-29 cells were treated for 16 h with 150 μM of either 6-MP or SA-6MP for 16 h, and were then stained with PI.

[5] = Nonactive 6-MP dimers in the medium of treated cell lines
Excerpt: The fact that only a fraction of the thiopurine molecules occurs in its active form explains the need for a high prodrug concentration. The allylthio moiety of the new derivative protects the free SH from such oxidation. Only later, upon entry to the cellular reducing environment is the mixed disulfide SA-6MP cleaved, which renders higher efficiency at lower concentrations. The proposed mechanism for the reaction of SA-6MP with free thiols in the cell is depicted in Scheme 2 hereinafter.

[6] = tested on: N87; test: Anti-proliferative concentration IC50 (Table 2); format: cell-based, human; settings: Homo sapiens; N87, 16 h, tested at 0-200 μM; read-out: Anti-proferative concentration - IC50 (mean ± SE)
Description: as §1
(§2) The results of viability and proliferation were expressed as mean values±SD (n=3-6). For each cell line, the results were analyzed using two-way analysis of variance (ANOVA) followed by Bonferroni's posttest for the factors of the drugs used and their various concentrations, considering p<0.05 as significant. IC50 values (mean±SEM) were obtained from the linear range of the viability curve versus drug concentration (XTT assay).
(§3) In particular, cell in suspension, namely, Daudi, HL-60, U937, Molt-4, Jurkat and B-CLL, were tested at prodrug concentration of 0-100 μM, and monolayer cells, namely, Hela HtTA-1, MDR HT-29 and N87, were tested at prodrug concentration of 0-200 μM. in both cases, cell viability was determined by trypan blue dye exclusion assay. Data are presented in Table 2 hereinbelow for 6MP derivatives-treated for 16 h.

[7] = tested on: HL-60; test: Anti-proliferative concentration IC50 (Table 2); format: cell-based, human; settings: Homo sapiens; HL-60, 16 h, tested at 0-100 μM; read-out: Anti-proferative concentration - IC50 (mean ± SE)
Description: as §1, §2, §3

SMILES | IC50 [1] [µM] | percent of apoptotic cells ([2]; 0-150 μM) | cell proliferation ([3]; N87, 0-100 μM) | proliferation (residual) ([3]; N87, 150 μM) [%] | epithelial-like growth / cell death [4] | nonactive 6-MP dimers (purine-S-S-purine) in the medium [5] | percent of apoptotic cells ([2]; 50 μM) [%] | percent of apoptotic cells ([2]; 100 μM) [%] | IC50 [6] [µM] | IC50 [7] [µM] | viability at 50 µM ([3]; Homo sapiens, N87, 50 μM, read-out: residual proliferation / viability) [%]
Sc1ncnc2nc[nH]c12 [6-MP, 6-Mercaptopurine, reference compound] | 0.149 ± 0.125 | no significant increase in the percent of apoptotic cells | no significant loss of cell proliferation | ~80 | no inhibition was observed | dimers were indeed found in the medium |  |  |  |  | 
C=CCSSc1ncnc2nc[nH]c12 [SA-6MP, S-allylthio-6-mercaptopurine] |  |  |  |  | epithelial-like growth was inhibited | not in the medium | 38 | 95 | 70.5 ± 8.5 | 42 ± 3.8 | 50 to 60
